One test has as its system SK-MEL-3 cells. As to the kind of experiment: Assay 1 cell proliferation measurement (CTG, 72 h), SK-MEL-3. It counts as cell-based, human. Conditions: Homo sapiens, SK-MEL3; Assay 1, 72 h, Cell Titer Glo; read-out: SK-MEL-3 IC50 [nM] (melanoma). The protocol: Cell Proliferation Measurement
The antiproliferative activity of the compounds of the general formula (I) was examined in vitro in human cancer cells. For this purpose, the appropriate number of cells (Hela: 800; SK-MEL-3: 1000; A549: 800) were plated in 384-well plates with appropriate growth medium ((A549: DMEM/Ham's F12 (Biochrom; #FG 4815 with stabile Glutamine), FCS 10% final (Biochrom; #S 0415); Hela: DMEM/Ham's F12 (Biochrom; #FG 4815 with stabile Glutamine), FCS 10% final (Biochrom; #S 0415); SK-MEL-3: McCoy's 5A (Biochrom; #F 1015), FCS 10% final (Biochrom; #S 0415), L-Alanyl-L-Glutamine final: 2 mM, (Biochrom; #K 0302)) and incubated at 37° C. overnight. After 24 h, cells on one plate (0 h plate) were treated with 30 μl/cavity of CTG solution (Promega Cell Titer Glo (catalogue #G755B and G756B)) and incubated at room temperature for 10 min, and luminescence was measured by means of a VICTOR V (Perkin Elmer), in order to determine cell viability on commencement of treatment. The cells on the test plate were treated with the compounds of the general formula (I) as and incubated at 37° C. for 72 h. The compounds were added to the cells by means of an HP D300 digital dispenser in a 10-step 2.5-fold dilution series generally starting at a maximum final drug concentration of 100 nM. As control, the cells were treated with vehicle (DMSO at 0.3% final concentration). After 72 h, the cells were treated with 30 μl/cavity of CTG solution (Promega Cell Titer Glo (catalogue #G755B and G756B)) and incubated at room temperature for 10 min. and luminescence was measured by means of a VICTOR V (Perkin Elmer), in order to determine cell viability at the end of treatment. The percentage effect on cell growth and the IC50 derived therefrom were determined for each test substance using the values from the 0 h plate […] and the DMSO control […]. The IC50 values were calculated using a 4-parameter fit.
In general terms: Cellular ATP, detected with luciferase, serves as a proxy for viable cell number.

Another test relates to HeLa cells. As to the kind of experiment: Assay 1 cell proliferation measurement (CTG, 72 h), HeLa. It is filed as cell-based, human. The settings on record: Homo sapiens, HeLa; Assay 1, 72 h, Cell Titer Glo; read-out: HeLa IC50 [nM] (Cervical cancer). A digest of the protocol:
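CTG luminescence readout after 72 h compound exposure at 37 °C; 10-point 2.5-fold dilutions from 100 nM max final; DMSO 0.3% vehicle. IC50 from 4-parameter fit, normalised to 0 h plate (max inhibition) and DMSO (min inhibition).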

The target of the next test is human full length PDE3B (Homo sapiens (Human), UniProt Q13370). In words: Assay 5 PDE3B enzyme inhibition (3H-cAMP SPA). It is filed as biochemical. The settings on record: Sf9 cell extract. The protocol:
(§1) The commercially available 3H-cAMP Scintillation Proximity Assay (SPA, Perkin Elmer) system was used for enzyme inhibition studies. For the determination of the in vitro effect of example compounds on the PDE3B reactions 2 μl of the respective example compound solution in DMSO (serial dilutions) were placed in wells of microtiter plates (Isoplate-96/200W; Perkin Elmer). 50 μl of a dilution of PDE3B cell extract from Sf9 cells overexpressing human full length PDE3B (SB Drug Discovery, UK) in buffer A (50 mM Tris/HCl pH 7.5, 8.3 mM MgCl2, 1.7 mM EDTA, 0.2% BSA) was added. The dilution of the PDE3B cell extract was chosen such that the reaction kinetics was linear and less than 70% of the substrate was consumed (typical dilution 1:6000). The reaction was started by addition of 50 μl (0.025 μCi) of 1:2000 in buffer A w/o BSA diluted substrate [8-3H]adenosine 3′, 5′-cyclic phosphate (1 μCi/μl; Perkin Elmer). After incubation at room temperature for 60 min, the reaction was stopped by addition of 25 μl of a suspension containing 18 mg/ml yttrium scintillation proximity beads (Perkin Elmer) in water. The microtiter plates were sealed and measured in a Microbeta scintillation counter (PerkinElmer Wallac). IC50 values were determined from sigmoidal curves by plotting percentage PDE3B activity vs log compound concentration.

For a further test, the target named is human full length PDE3A (Homo sapiens (Human), UniProt Q14432). As to the kind of experiment: Assay 4 PDE3A enzyme inhibition (3H-cAMP SPA). It is filed as biochemical. The settings on record: Sf9 cell extract. How it is done:
Assay 4 Method for PDE3A Enzyme Inhibition
as §1, with “PDE3A” for “PDE3B”, “1:5000).” for “1:6000).”

Chain of human full length PDE3A (Q14432 whole entry): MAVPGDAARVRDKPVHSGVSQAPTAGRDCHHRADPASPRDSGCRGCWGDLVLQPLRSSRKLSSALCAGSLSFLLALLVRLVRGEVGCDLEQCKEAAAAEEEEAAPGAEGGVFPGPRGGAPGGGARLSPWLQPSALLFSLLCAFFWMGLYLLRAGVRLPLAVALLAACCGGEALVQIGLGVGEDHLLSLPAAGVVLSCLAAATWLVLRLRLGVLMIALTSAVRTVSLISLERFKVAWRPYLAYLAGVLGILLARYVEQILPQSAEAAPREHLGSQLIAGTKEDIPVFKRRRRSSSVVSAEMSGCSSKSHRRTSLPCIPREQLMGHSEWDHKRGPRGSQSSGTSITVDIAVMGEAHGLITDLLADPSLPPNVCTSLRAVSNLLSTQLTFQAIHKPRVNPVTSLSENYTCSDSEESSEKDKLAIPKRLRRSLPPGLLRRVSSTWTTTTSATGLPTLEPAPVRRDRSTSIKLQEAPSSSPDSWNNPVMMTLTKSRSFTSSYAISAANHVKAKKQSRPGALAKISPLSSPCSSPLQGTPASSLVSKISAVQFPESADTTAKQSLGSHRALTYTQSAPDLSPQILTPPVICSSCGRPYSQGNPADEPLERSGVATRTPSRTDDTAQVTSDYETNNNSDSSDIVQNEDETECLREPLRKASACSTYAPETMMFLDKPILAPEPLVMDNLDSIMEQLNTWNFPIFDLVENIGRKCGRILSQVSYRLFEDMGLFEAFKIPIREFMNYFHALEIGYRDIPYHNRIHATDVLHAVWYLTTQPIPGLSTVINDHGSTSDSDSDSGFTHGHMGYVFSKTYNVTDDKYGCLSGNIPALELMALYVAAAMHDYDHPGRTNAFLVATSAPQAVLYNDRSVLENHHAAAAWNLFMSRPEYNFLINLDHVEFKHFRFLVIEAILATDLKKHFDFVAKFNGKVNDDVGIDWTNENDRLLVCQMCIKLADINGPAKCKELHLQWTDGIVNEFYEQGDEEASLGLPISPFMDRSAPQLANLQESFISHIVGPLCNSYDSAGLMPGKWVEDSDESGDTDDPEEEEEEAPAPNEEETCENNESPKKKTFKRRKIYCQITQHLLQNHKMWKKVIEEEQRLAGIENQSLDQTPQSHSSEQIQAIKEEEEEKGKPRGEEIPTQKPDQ
Chain of human full length PDE3B (Q13370 whole entry): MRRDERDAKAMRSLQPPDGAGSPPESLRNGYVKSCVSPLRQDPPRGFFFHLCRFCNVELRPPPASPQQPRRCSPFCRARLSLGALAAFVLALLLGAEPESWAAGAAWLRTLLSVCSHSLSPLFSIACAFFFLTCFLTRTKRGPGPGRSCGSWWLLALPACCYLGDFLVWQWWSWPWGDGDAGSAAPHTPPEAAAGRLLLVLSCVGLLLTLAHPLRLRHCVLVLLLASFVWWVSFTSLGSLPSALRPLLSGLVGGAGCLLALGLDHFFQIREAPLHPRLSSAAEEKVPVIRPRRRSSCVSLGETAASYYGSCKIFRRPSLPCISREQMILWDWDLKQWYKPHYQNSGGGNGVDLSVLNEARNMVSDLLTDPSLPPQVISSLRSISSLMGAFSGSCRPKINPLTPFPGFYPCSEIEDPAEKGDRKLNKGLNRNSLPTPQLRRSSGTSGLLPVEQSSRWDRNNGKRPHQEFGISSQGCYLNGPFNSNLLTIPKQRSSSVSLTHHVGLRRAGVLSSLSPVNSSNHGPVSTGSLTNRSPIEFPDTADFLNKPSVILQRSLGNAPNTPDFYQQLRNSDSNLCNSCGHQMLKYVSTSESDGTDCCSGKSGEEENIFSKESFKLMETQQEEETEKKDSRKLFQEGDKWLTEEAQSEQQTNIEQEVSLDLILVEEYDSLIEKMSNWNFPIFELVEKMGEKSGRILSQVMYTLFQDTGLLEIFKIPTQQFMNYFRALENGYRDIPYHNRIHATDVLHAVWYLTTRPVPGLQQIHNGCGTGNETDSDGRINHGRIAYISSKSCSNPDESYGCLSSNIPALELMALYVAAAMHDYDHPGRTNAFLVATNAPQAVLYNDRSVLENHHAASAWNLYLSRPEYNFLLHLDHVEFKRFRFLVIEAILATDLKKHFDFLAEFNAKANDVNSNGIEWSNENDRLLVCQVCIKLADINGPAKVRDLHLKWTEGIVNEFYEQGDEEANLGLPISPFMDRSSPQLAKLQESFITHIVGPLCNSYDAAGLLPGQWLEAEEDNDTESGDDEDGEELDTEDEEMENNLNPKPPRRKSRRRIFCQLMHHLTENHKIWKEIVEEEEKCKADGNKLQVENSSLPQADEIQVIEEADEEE

With `O=C1NN=C(c2ccc(NC[C@H]3CCCO3)c(C(F)(F)F)c2)CO1` [Example 225, 5-[4-({[(2R)-Oxolan-2-yl]methyl}amino)-3-(trifluoromethyl)phenyl]-3,6-dihydro-2H-1,3,4-oxadiazin-2-one], the IC50 – broadly, the concentration that gives 50% inhibition – stood at 5 nM in the test on SK-MEL-3 cells, 3 nM in the test with HeLa cells, 220 nM on human full length PDE3B and 45 nM against human full length PDE3A.

Turning to `O=C1NN=C(c2ccc(-c3ccc(F)c(O)c3)c(C(F)(F)F)c2)CO1` [Example 37, 5-[4′-Fluoro-3′-hydroxy-2-(trifluoromethyl)biphenyl-4-yl]-3,6-dihydro-2H-1,3,4-oxadiazin-2-one], the IC50 in the test with SK-MEL-3 cells was found to be 12 nM; in the test with HeLa cells it was 37 nM; on human full length PDE3B it was 130 nM; against human full length PDE3A, 150 nM.

With `Cc1cc(-c2ccc(C3=NNC(=O)OC3)cc2C(F)(F)F)sc1C#N` [Example 152, 3-Methyl-5-[4-(2-oxo-3,6-dihydro-2H-1,3,4-oxadiazin-5-yl)-2-(trifluoromethyl)phenyl]thiophene-2-carbonitrile], the IC50 with SK-MEL-3 cells amounted to 56 nM; with HeLa cells it was 21 nM; at human full length PDE3B it was 76 nM; against human full length PDE3A it was 63 nM.

On to `Cc1cc(C2=NNC(=O)OC2)ccc1C1=CCOCC1` [Example 10, 5-[4-(3,6-Dihydro-2H-pyran-4-yl)-3-methylphenyl]-3,6-dihydro-2H-1,3,4-oxadiazin-2-one], for which the IC50 amounted to 43 nM in the test with SK-MEL-3 cells, 15 nM in the test with HeLa cells, 230 nM on human full length PDE3B and 220 nM against human full length PDE3A.

Turning to `O=C1NN=C(c2ccc(N[C@H]3CC[C@H](O)CC3)c(C(F)(F)F)c2)CO1` [Example 211, (trans)-5-[4-{[4-Hydroxycyclohexyl]amino}-3-(trifluoromethyl)phenyl]-3,6-dihydro-2H-1,3,4-oxadiazin-2-one], the IC50 in the test with SK-MEL-3 cells came to 2 nM; in the test on HeLa cells it was 2 nM; against human full length PDE3B, 54 nM; against human full length PDE3A it was 29 nM.

With `C[C@@H]1OC(=O)NN=C1c1ccc(-c2ccccc2F)c(C(F)(F)F)c1` [Example 179, (6S)-5-[2′-Fluoro-2-(trifluoromethyl)[1,1′-biphenyl]-4-yl]-6-methyl-3,6-dihydro-2H-1,3,4-oxadiazin-2-one], the IC50 in the test on SK-MEL-3 cells was found to be 15 nM; in the test with HeLa cells, 8 nM; against human full length PDE3B it was 110 nM; against human full length PDE3A, 140 nM.

With `C[C@@H](O)CCNc1ccc(C2=NNC(=O)OC2)cc1C(F)(F)F` [Example 217, 5-[4-{[(3R)-3-Hydroxybutyl]amino}-3-(trifluoromethyl)phenyl]-3,6-dihydro-2H-1,3,4-oxadiazin-2-one], the IC50 turned out to be 16 nM in the test with SK-MEL-3 cells, 14 nM with HeLa cells, 210 nM against human full length PDE3B and 65 nM at human full length PDE3A.

Turning to `O=C1NN=C(c2ccc(-c3ccc(F)nc3)c(F)c2)CO1` [Example 77, 5-[3-Fluoro-4-(6-fluoropyridin-3-yl)phenyl]-3,6-dihydro-2H-1,3,4-oxadiazin-2-one], the concentration for half-maximal inhibition (IC50) in the test on SK-MEL-3 cells was found to be 16 nM; with HeLa cells it was 8 nM; against human full length PDE3B it was 83 nM; against human full length PDE3A, 33 nM.

Consider `CC(C)CCNc1ccc(C2=NNC(=O)OC2)cc1C(F)(F)F` [Example 220, 5-{4-[(3-Methylbutyl)amino]-3-(trifluoromethyl)phenyl}-3,6-dihydro-2H-1,3,4-oxadiazin-2-one], for which the IC50 in the test with SK-MEL-3 cells was found to be 14 nM; in the test on HeLa cells, 6 nM; on human full length PDE3B, 131 nM; at human full length PDE3A it was 90 nM.

On to `O=C1NN=C(c2ccc(-c3cc(F)c(F)c(F)c3)c(C(F)(F)F)c2)CO1` [Example 58, 5-[3′,4′,5′-Trifluoro-2-(trifluoromethyl)biphenyl-4-yl]-3,6-dihydro-2H-1,3,4-oxadiazin-2-one], for which the IC50 is 64 nM in the test with SK-MEL-3 cells, 40 nM in the test on HeLa cells, 570 nM on human full length PDE3B and 310 nM at human full length PDE3A.
